{
  "source": "patent US8901105B2",
  "about": "“Prodrug derivatives of (E)-N-methyl-N-((3-M ethylbenzofuran-2-yl)methyl)-3-(7-oxo-5,6,7,8-tetrahydro-1,8-naphthyridin-3-yl)acrylamide” (Affinium Pharmaceuticals, Inc., priority 2012, dated 2014)",
  "key": {"[1]": {"tested_on": "Staphylococcus aureus", "assay": "Broth microdilution MIC", "assay_type": "cell-based", "conditions": "for MIC: Staphylococcus aureus, read-out: MIC", "procedure": "Bacterial Isolates. Organisms tested in this study are listed in Table P. Clinical isolates consisted of 5 Staphylococcus aureus (MSSA), 3 Staphylococcus aureus (HA-MRSA), 2 Staphylococcus aureus (CA-MRSA), 2 Enterococcus faecalis (VSE), 2 Streptococcus pyogenes, and 2 Escherichia coli (susceptible to most antibiotics). S. aureus ATCC 29213, E. faecalis ATCC 29212, S. pneumoniae ATCC 49619, and E. coli ATCC 25922 were tested for the purposes of quality control.\nMinimal Inhibitory Concentrations (MIC) values against the selected isolates were determined using the reference broth microdilution method according to the Clinical Laboratory Standards Institute (CLSI) guidelines.\nThe MIC was read and recorded as the lowest concentration of drug that inhibited visible growth of the organism."}, "[2]": {"biological_target": "T1, S. aureus FabI (Staphylococcus aureus, UniProt Q6GI75)", "T1 sequence (Q6GI75 1-256)": "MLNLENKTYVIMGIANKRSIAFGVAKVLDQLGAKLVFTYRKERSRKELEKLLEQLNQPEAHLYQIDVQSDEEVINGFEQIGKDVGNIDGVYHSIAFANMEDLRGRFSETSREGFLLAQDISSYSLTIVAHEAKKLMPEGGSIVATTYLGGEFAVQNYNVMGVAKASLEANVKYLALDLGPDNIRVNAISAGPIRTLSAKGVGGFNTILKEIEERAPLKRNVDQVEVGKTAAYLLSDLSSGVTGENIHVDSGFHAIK", "assay": "Inhibition of S. aureus FabI", "assay_type": "biochemical"}},
  "note": "Where a name gives a salt, the structure may show the parent alone. Read-outs that look alike come from different tables or passages of the source.",
  "data": [
    {"smiles": "Cc1c(CN(C)C(=O)/C=C/c2cnc3c(c2)CCC(=O)N3COP(=O)(O)O)oc2ccccc12", "note": "[Compound 10, (E)-6-[(N-methyl-((3-methylbenzofuran-2-yl)methyl)amino)-3-oxoprop-1-en-1-yl)-2-oxo-3,4-dihydro-1,8-naphthyridin-1(2H)-yl]methylphosphate bis-ethanolammonium salt]", "values": [
      {"measurement": "MIC", "setting": "[1]; ATCC29213, S. aureus ATCC 29213", "result": 4, "unit": "µg/mL"},
      {"measurement": "MIC", "setting": "[1]; MRSA, S. aureus 3083, HA-MRSA", "result": 4, "unit": "µg/mL"},
      {"measurement": "MIC", "setting": "[1]; MRSA, S. aureus 3086, HA-MRSA", "result": 16, "unit": "µg/mL"},
      {"measurement": "MIC", "setting": "[1]; MRSA, S. aureus 3265, HA-MRSA", "result": 16, "unit": "µg/mL"},
      {"measurement": "MIC", "setting": "[1]; MSSA, S. aureus 3104, MSSA", "result": "> 16", "unit": "µg/mL"},
      {"measurement": "MIC", "setting": "[1]; MSSA, S. aureus 3107, MSSA", "result": 8, "unit": "µg/mL"},
      {"measurement": "MIC", "setting": "[1]; MSSA, S. aureus 3245, MSSA", "result": 16, "unit": "µg/mL"},
      {"measurement": "MIC", "setting": "[1]; MSSA, S. aureus 3250, MSSA", "result": 8, "unit": "µg/mL"},
      {"measurement": "MIC", "setting": "[1]; MSSA, S. aureus 3856, MSSA", "result": 16, "unit": "µg/mL"},
      {"measurement": "MIC", "setting": "[1]; S. aureus 2168, CAMRSA", "result": 4, "unit": "µg/mL"},
      {"measurement": "MIC", "setting": "[1]; S. aureus 2294, CAMRSA", "result": 16, "unit": "µg/mL"},
      {"measurement": "times less activity than Compound Z", "setting": "[1]; panel of 11 S. aureus strains", "result": "500-4000 times"},
      {"measurement": "inhibition of S. aureus FabI", "setting": "[2]", "result": "no inhibition"}
    ]}
  ]
}
